Reference: publication PMC13183915, “A platinum butterfly effect: small changes turn an anticancer drug into a non-toxic metalloantibiotic with in vivo efficacy” (npj Antimicrobials and Resistance, 2026)
Values after ≈ are worked out from the molar mass of the structure shown. Like-named read-outs stand apart in the source and are kept apart here.

Experiments:
S. aureus (CCUG 62707) = assay: MIC of COD ligand and Pt precursor, S. aureus CCUG 62707; type: cell-based; conditions: Staphylococcus aureus, CCUG62707
E. coli (NCTC 13476) = assay: MIC, E. coli NCTC 13476 (with or without PMBN); type: cell-based; conditions: Escherichia coli, NCTC13476
[1] = tested on: methicillin-sensitive Staphylococcus aureus (MSSA), clinical isolate; assay: MIC assay, MSSA clinical isolate; type: cell-based; conditions: MSSA clinical isolate
[2] = tested on: methicillin-resistant S. aureus (MRSA) COL; assay: MIC assay, MRSA COL; type: cell-based, Staphylococcus aureus; conditions: MRSA COL
Bacillus subtilis MW168 = assay: MIC assay, B. subtilis MW168; type: cell-based; conditions: B. subtilis MW168
Escherichia coli W3110 = assay: MIC assay, E. coli; type: cell-based; conditions: E. coli, Table S2
MSSA ATCC 29213 = assay: Broth microdilution MIC, MSSA ATCC 29213; type: cell-based, S. aureus; conditions: Staphylococcus aureus; S.aureus ATCC 29213 (unpassaged), Table S9; read-out: MIC
Procedure: The data is given in supporting information (Table S5). Before starting the experiment, a single colony was picked from MHA plate, inoculated in MHBII and incubated overnight at 37 °C with shaking for 18–24 h to get the starter culture. Antibiotic susceptibility testing was conducted according to the CLSI (Clinical & Laboratory Standards Institute) guidelines using the broth microdilution assay. 10 mg/mL stock solutions of test compounds were prepared in DMSO. Bacterial cultures were inoculated in MHBII and optical density (OD) was measured at 600 nm, followed by dilution to achieve ~10^6 CFU/mL. The compounds were tested from 64 to 0.5 mg/L in two-fold serial diluted fashion with 2.5 μL of each concentration added to well of a 96-well round bottom microtiter plate. Later, 97.5 μL of bacterial suspension was added to each well containing either test compound or appropriate controls. […] The MIC is defined as the lowest concentration of the compound at which there is absence of visible growth. For each test compound, MIC determinations were carried out independently three times using duplicate samples.

S. aureus ATCC 29213 [3] = assay: Drug interaction study (chequerboard assay); type: cell-based; conditions: for MIC: Staphylococcus aureus, ATCC29213, compound alone, Table S8, read-out: MIC; for FIC B: antibiotic in combination with Pt1 / alone; for FIC (FICA+FICB) / Interference: combination with Pt1; for Interference: synergistic ≤0.5, indifferent >0.5 to 4, antagonistic >4
Procedure: All compounds were freshly prepared for the experiment. […] Following incubation, the fractional inhibitory concentration index (FICI) was calculated with the formula FICI = […], whereby FICA = MIC of drug A in combination/MIC of drug A alone and FICB = MIC of drug B in combination/MIC of drug B alone. A drug combination is considered synergistic when ∑FICI is ≤0.5, indifferent when ∑FICI is >0.5 to 4, and antagonistic when ∑FICI is >4.

[4] = tested on: 36th Passage S.aureus ATCC 29213 in the presence of Pt-1; assay: microbe, parasite or virus in culture; type: cell-based; conditions: Staphylococcus aureus, ATCC29213
Procedure: (§1) The MICs of the passaged cultures were determined every 3 days and compared to that of wild type S. aureus ATCC 29213. MIC changes were recorded for 36 passages.

HEK293T cells = type: cell-based, Human
Procedure: The control for the experiments was DMSO. HEK293T cells were cultivated in DMEM high glucose supplemented with 10% heat-inactivated fetal bovine serum, 100 U/mL of penicillin and streptomycin and maintained at a temperature of 37 °C with 5% CO2. Initially, 4000/well of cells were seeded into 96-well plates and incubated for 24 h before being exposed to compounds at concentrations ranging from 0.78, 50, and 100 µM. After 24 h of incubation, the compounds were added and serially diluted and incubated for 24 and 48 h at 37 °C 5% CO2, the cells were stained with alamar Blue, and the fluorescence excitation/ emission 540 nm/590 nm was measured using 96 well-plate reader. CC50 is defined as the lowest concentration of compound which leads to a 50% reduction in cell viability compared to untreated and DMSO control. Each experiment was repeated in triplicate.

B. subtilis bSS82 = assay: Bacterial cytological profiling (BCP); type: cell-based, Bacillus subtilis
From the text: To get an overview of the cellular effects of the compounds, we employed bacterial cytological profiling (BCP). To this end, we used a strain intracellularly expressing green-fluorescent protein (GFP) from the strong, constitutive PrpsD promoter (B. subtilis bSS82[37]), stained with the membrane dye Nile red and the DNA dye DAPI. Combined with phase contrast microscopy, this setup allows simultaneous assessment of cell morphology, cell lysis, pore formation, membrane morphology, and nucleoid morphology in one assay.
BCP was performed according to Wenzel et al.[71]. In short, B. subtilis strain […] (PrpsD-gfp) was grown to an OD600 of 0.3 prior to splitting of parent cultures and addition of antibiotics. Samples were taken for microscopy after 30, 60, and 120 min of antibiotic treatment. Five minutes prior to sampling, cultures were stained with 0.5 µg/mL Nile red and 1 µg/mL DAPI for 5 min. Samples of 0.5 µL were then spotted onto 1% agarose slides[45] and images were taken immediately.
Cell length and DAPI intensity were analyzed using MicrobeJ[73]. To this end, the fit shape, rod-shaped setting was used with a minimum area of 0.5 µm, while all other settings remained at default. B. subtilis chains were seperated based on the membrane stain. Membrane stress was counted using the ObjectJ plugin[74], using the membrane setting to seperate individual cells in chains. Membrane damage was expressed as ratio of cells with visible Nile red foci and total detected cells. DNA compaction was analyzed by determining the area of the DNA and the whole cell are using advanced weka segmentation. Cells were segmented according to the GFP signal. […] Cells that were out of focus or lysed were excluded from the analysis. Statistical analysis was peformed using GraphPad Prism 10 as specified in the individual figure legends.

[5] = tested on: RecA-GFP (B. subtilis UG10); assay: Localization of RecA-GFP (DNA damage reporter); type: cell-based, Bacillus subtilis; conditions: Pt1 3.125 µM, Pt8 25 µM, CisPt 100 µM; strongest after 10 min
Procedure: To confirm whether the compounds induce DNA damage in bacterial cells, the localization of RecA was assessed. RecA is part of the bacterial SOS response to DNA damage. It is a DNA-associated protein that recognizes single-stranded DNA, which occurs as a consequence of strand breaks. If strand breaks are present, RecA accumulates at the damaged sites, appearing as foci or elongated structures. Since the RecA response is strongest shortly after stress induction, we additionally examined a 10 min timepoint in this assay.
B. subtilis strains were grown in LB containing appropriate inducer concentrations as specified in Table S10. After reaching an OD600 of 0.3, cultures were split and treated with antibiotics. Samples were withdrawn after 30 and 60 min of treatment, spotted on glass slides covered with 1% agarose films, and immediately imaged.

[6] = tested on: 36th Passage S.aureus ATCC 29213 in the presence of Levofloxacin; assay: Antibiogram of strain passaged with levofloxacin; type: cell-based; conditions: Staphylococcus aureus, ATCC29213
Procedure: as §1

S. aureus ATCC 29213 [7] = assay: Post antibiotic effect (PAE); type: cell-based; conditions: for Time for 1 log10 increase in bacterial cfu count: 1 h exposure
Procedure: Post antibiotic effect (PAE) was determined as follows. […] Following incubation, cultures were centrifuged and washed twice with pre-warmed MHBII to remove any traces of antibiotics. Finally, cells were resuspended in drug-free MHBII and incubated further at 37 °C. Samples were taken every 1 h, serially diluted, and plated on tryptic soy agar (TSA) for enumeration of CFU. […] CFU observed immediately after the removal of the drug, and C in a similarly treated drug-free control.

[8] = 60 min, Pt1 3.125 µM, Pt8 25 µM, CisPt 100 µM

| SMILES | MIC (MSSA ATCC 29213) [mg/L] | MIC (S. aureus ATCC 29213 [3]) [mg/L] | FIC B (S. aureus ATCC 29213 [3]) | FIC (FICA+FICB) (S. aureus ATCC 29213 [3]) | Interference (S. aureus ATCC 29213 [3]) | MIC [4] [mg/L] | also measured |
| --- | --- | --- | --- | --- | --- | --- | --- |
| C1=CCCC=CCC1 [1,5-Cyclooctadiene, 1,5-cyclooctadiene] |  |  |  |  |  |  | MIC (S. aureus (CCUG 62707)): > 200 µM; MIC (E. coli (NCTC 13476)): > 200 µM |
| N.N.O=C([O-])C1(C(=O)[O-])CCC1.[Pt+2] [Carboplatin] |  |  |  |  |  |  | MIC [1]: > 100 µM; MIC [2]: > 100 µM; MIC (Bacillus subtilis MW168): > 100 µM; MIC (Escherichia coli W3110): > 100 µM |
| CC(C)(O/N=C(\C(=O)N[C@@H]1C(=O)N2C(C(=O)[O-])=C(C[n+]3ccccc3)CS[C@H]12)c1csc(N)n1)C(=O)O [Ceftazidime] | 16 (≈ 29.3 µM) | 16 | 1 | 2 | no interaction | 16 (≈ 29.3 µM) |  |
| N.N.[Cl][Pt][Cl] [CisPt, cisplatin] |  |  |  |  |  |  | MIC [1]: >100 µM; MIC [2]: >100 µM; MIC (Bacillus subtilis MW168): >100 µM; IC50 (HEK293T cells; 24 h): 81.6 ± 5.1 µM; IC50 (HEK293T cells; 48 h): 22 ± 3.4 µM; DAPI fluorescence intensity (B. subtilis bSS82; [8]): significant reduction of the DAPI signal; nucleoid compaction (cell area vs DAPI-stained nucleoid area) (B. subtilis bSS82; [8]): clear nucleoid compaction; growth and cell length phenotype (B. subtilis bSS82; B. subtilis, 100 µM): slight growth defects and a mild cell elongation phenotype; RecA accumulation on nucleoids [5]: clear RecA accumulations |
| CCCCCCCCCC(=O)N[C@@H](Cc1c[nH]c2ccccc12)C(=O)N[C@H](CC(N)=O)C(=O)N[C@@H](CC(=O)O)C(=O)N[C@@H]1C(=O)NCC(=O)N[C@@H](CCCN)C(=O)N[C@@H](CC(=O)O)C(=O)N[C@H](C)C(=O)N[C@@H](CC(=O)O)C(=O)NCC(=O)N[C@H](CO)C(=O)N[C@@H]([C@H](C)CC(=O)O)C(=O)N[C@@H](CC(=O)c2ccccc2N)C(=O)O[C@@H]1C [Daptomycin] | 1 (≈ 0.617 µM) | 1 | 1 | 2 | no interaction | 1 (≈ 0.617 µM) |  |
| CNC(C)C1CCC(N)C(OC2C(N)CC(N)C(OC3OCC(C)(O)C(NC)C3O)C2O)O1 (centres unmarked) [Gentamicin] | 0.25 (≈ 0.523 µM) | 0.25 | 1 | 2 | no interaction | 0.5 (≈ 1.05 µM) |  |
| C[C@H]1COc2c(N3CCN(C)CC3)c(F)cc3c(=O)c(C(=O)O)cn1c23 [Levofloxacin] | 0.25 (≈ 0.692 µM) | 0.25 | 1 | 2 | no interaction | 0.25 (≈ 0.692 µM) | MIC [6]: 32 mg/L (≈ 88.6 µM); PAE (S. aureus ATCC 29213 [7]; 1x MIC): ~ 0.5 h; Time for 1 log10 increase in bacterial cfu count (S. aureus ATCC 29213 [7]; 1x MIC): ~ 3 h; PAE (S. aureus ATCC 29213 [7]; 5x MIC): ~ 1.5 h; Time for 1 log10 increase in bacterial cfu count (S. aureus ATCC 29213 [7]; 5x MIC): ~ 4 h; PAE (S. aureus ATCC 29213 [7]; 10x MIC): ~ 1.5 h; Time for 1 log10 increase in bacterial cfu count (S. aureus ATCC 29213 [7]; 10x MIC): ~ 4 h; PAE (S. aureus ATCC 29213 [7]; 10x MIC, listed as levofloxacin): 1.5 h |
